Measured values taken from patent US8591943B2, “Pyrazolo[1,5-a]pyrimidine derivatives as mTOR inhibitors” (Merck Sharp & Dohme Corp., priority 2009, dated 2013).

Key:
recombinant His-CHK1 = target: T1, recombinant His-CHK1 (Homo sapiens, UniProt O14757); experiment: CHK1 In Vitro Kinase Assay
T1 sequence (O14757 1-265 limits assumed): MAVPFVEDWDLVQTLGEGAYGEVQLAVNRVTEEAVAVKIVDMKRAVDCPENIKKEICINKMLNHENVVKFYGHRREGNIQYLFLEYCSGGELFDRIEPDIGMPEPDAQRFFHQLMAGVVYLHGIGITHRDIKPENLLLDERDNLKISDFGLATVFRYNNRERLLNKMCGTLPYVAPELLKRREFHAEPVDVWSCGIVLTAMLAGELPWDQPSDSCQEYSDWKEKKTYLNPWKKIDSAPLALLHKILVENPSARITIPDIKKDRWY

mTOR enzyme = mTOR enzyme (Homo sapiens, UniProt P42345); experiment: mTOR Kinase Assay; assay type: biochemical; settings: rated A-F
Protocol: The mTOR assay buffer contains 10 mM hepes (pH 7.4), 50 mM NaCl, 100 μg/ml BSA, 50 mM B-glycerophosphate, 10 mM MnCl2 and 0.5 mM DTT. 20 ng of mTOR enzyme is preincubated with the compound for 10 minutes. 5 μM ATP and 0.1 μM GSTS6K is added. The reaction is incubated for one hour at 30° C. Anti phospho p70S6K (about 1.7 ng/well) and anti GSTXL665 (1:1 Ratio with the substrate GSTS6K) are added after incubating. The plates are read at least 2 hours after adding the anti phospho p70S6K and the anti GSTXL665.

Cyclin E/CDK2 = target: T2, Cyclin E/CDK2 (Homo sapiens, UniProt P24941); experiment: In Vitro Cyclin E/CDK2 Kinase Assay; assay type: biochemical; settings: rated A-F
T2 construct: made in house; host or cells: SF9 cells, baculovirus co-infection
Description: Cyclin E was cloned into pVL1393 (Pharmingen, La Jolla, Calif.) by PCR, with the addition of 5 histidine residues at the amino-terminal end to allow purification on nickel resin. The expressed protein was approximately 45 kDa. CDK2 was cloned into pVL1393 by PCR, with the addition of a haemaglutinin epitope tag at the carboxy-terminal end (YDVPDYAS). The expressed protein was approximately 34 kDa in size.
Recombinant baculoviruses expressing cyclin E and CDK2 were co-infected into SF9 cells at an equal multiplicity of infection (MOI=5), for 48 hrs. Cells were harvested by centrifugation at 1000 RPM for 10 minutes, then pellets lysed on ice for 30 minutes in five times the pellet volume of lysis buffer containing 50 mM Tris pH 8.0, 150 mM NaCl, 1% NP40, 1 mM DTT and protease inhibitors (Roche Diagnostics GmbH, Mannheim, Germany). Lysates were spun down at 15000 RPM for 10 minutes and the supernatant retained. 5 mL of nickel beads (for one liter of SF9 cells) were washed three times in lysis buffer (Qiagen GmbH, Germany). Imidazole was added to the baculovirus supernatant to a final concentration of 20 mM, then incubated with the nickel beads for 45 minutes at 4° C. Proteins were eluted with lysis buffer containing 250 mM imidazole. Eluate was dialyzed about 15 hours in 2 liters of kinase buffer containing 50 mM Tris pH 8.0, 1 mM DTT, 10 mM MgCl2, 100 μM sodium orthovanadate and 20% glycerol. Enzyme was stored in aliquots at −70° C.
Cyclin E/CDK2 kinase assays can be performed as described below in low protein binding 96-well plates (Corning Inc, Corning, N.Y.).
The substrate used in these reactions is a biotinylated peptide derived from Histone H1 (from Amersham, UK). The substrate is thawed on ice and diluted to 2 μM in kinase buffer. Test compounds are diluted in 10% DMSO to desirable concentrations. For each kinase reaction, 20 μL of the 50 μg/mL enzyme solution (1 μg of enzyme) and 20 μl of the 2 μM substrate solution are mixed, then combined with 10 μL of diluted compound in each well for testing. The kinase reaction is initiated by addition of 50 μL of 2 μM ATP and 0.1 μCi of ^33P-ATP (from Amersham, UK). The reaction is allowed to run for 1 hour at room temperature, then is stopped by adding 200 μL of stop buffer containing 0.1% Triton X-100, 1 mM ATP, 5 mM EDTA, and 5 mg/mL streptavidine coated SPA beads (from Amersham, UK) for 15 minutes. The SPA beads are then captured onto a 96-well GFIB filter plate (Packard/Perkin Elmer Life Sciences) using a Filtermate universal harvester (Packard/Perkin Elmer Life Sciences.). Non-specific signals are eliminated by washing the beads twice with 2M NaCl then twice with 2 M NaCl with 1% phosphoric acid. The radioactive signal can then be measured using, for example, a TopCount 96 well liquid scintillation counter (from Packard/Perkin Elmer Life Sciences).

| Structure (SMILES) | IC50 (recombinant His-CHK1) | IC50 (mTOR enzyme) | IC50 (Cyclin E/CDK2) |
| --- | --- | --- | --- |
| COC(=O)C1CCC(c2nc3c(-c4cnc5ccccc5c4)cnn3c(N)c2Br)CN1 (stereo not drawn) [Compound 2.3, Methyl 5-(7-amino-6-bromo-3-(quinolin-3-yl)pyrazolo[1,5-a]pyrimidin-5-yl)piperidine-2-carboxylate] | 1 to 5 µM | < 0.1 µM | > 5 µM |
| Nc1c(Cl)c(N2CCN3C(=O)NC(=O)C3C2)nc2c(-c3cnc4ccccc4c3)cnn12 (stereo not drawn) [Compound 10.61] | > 5 µM | < 0.1 µM | > 5 µM |
| Nc1c(Br)c(CN2CCOCC2)nc2c(-c3cnc4ccccc4c3)cnn12 [Compound 13.2, 6-bromo-5-(morpholinomethyl)-3-(quinolin-3-yl)pyrazolo[1,5-a]pyrimidin-7-amine] | > 5 µM | < 0.1 µM | > 5 µM |
| Nc1c(Br)c(C2CCC(CC(=O)O)CC2)nc2c(-c3cnc4ccccc4c3)cnn12 (single isomer, unassigned) [Compound 5.4, 2-(4-(7-amino-6-bromo-3-(quinolin-3-yl)pyrazolo[1,5-a]pyrimidin-5-yl)cyclohexyl)acetic acid] | > 5 µM | < 0.1 µM | > 5 µM |
| Nc1c(Br)c(N2CCS(=O)(=O)CC2)nc2c(-c3cnc4ccccc4c3)cnn12 [Compound 10.31] | > 5 µM | < 0.1 µM | > 5 µM |
| Nc1c(Br)c(CN2CCN3C(=O)NC(=O)C3C2)nc2c(-c3cnc4ccccc4c3)cnn12 (stereo not drawn) [Compound 13.4] | > 5 µM | < 0.1 µM | > 5 µM |
